Earlier results on 1 molecule are cited in patent publication US12433839B2, “Sustained release particle formulations” (Adare Pharmaceuticals USA, Inc., priority 2011, dated 2025).

The conditions of the series: in vivo.

In the case of `COc1ccccc1OCC(O)CO` (stereo not shown) [guaifenesin], the typical plasma half-life result is reported as “about one”.
